Data: the NIST ThermoML archive (doi:10.1016/j.fluid.2013.11.028)

Assays:
[1] = Liquid; for mass density: 101 kPa, Vibrating tube method; for viscosity: 101.33 kPa, Falling or rolling sphere viscometry
[2] = wn = mass fraction of the nth substance listed; conditions: 101 kPa, Liquid; for viscosity: Falling or rolling sphere viscometry; for binary diffusion coefficient: Taylor dispersion method; for mass density: Vibrating tube method
[3] = xn = mol fraction of the nth substance listed; conditions: 101 kPa, Liquid, Taylor dispersion method, x1 = 0.2

CN(C)CCN(C)C [N,N,N',N'-tetramethyl-1,2-diaminoethane]
[1]
Conditions | mass density [kg/m3]
303.15 K | 767.3
308.15 K | 762.9
313.15 K | 759.1
318.15 K | 754.7
323.15 K | 750.3

CN(C)CCCN(C)C [N,N,N',N'-tetramethyl-1,3-propanediamine]
[1]
Conditions | mass density [kg/m3]
303.15 K | 774.8
308.15 K | 770.9
313.15 K | 767.4
318.15 K | 765
323.15 K | 761.4

CNCCCN [N-methyl-1,3-diaminopropane]
[1]
Conditions | mass density [kg/m3]
303.15 K | 849.1
308.15 K | 844.7
313.15 K | 840.3
318.15 K | 835.9
323.15 K | 831.5

CN(C)CCCN(C)C [N,N,N',N'-tetramethyl-1,3-propanediamine] + O
[2]
Conditions | binary diffusion coefficient [m2/s] | mass density [kg/m3] | viscosity [mPa·s]
303.15 K, w1 = 0 | 7.01e-10 | – | –
303.15 K, w1 = 0.1 | 4.86e-10 | 983.3 | 1.345
303.15 K, w1 = 0.2 | 3.74e-10 | 972.5 | 2.335
303.15 K, w1 = 0.3 | 3.05e-10 | 960.1 | 3.923
303.15 K, w1 = 0.4 | 2.56e-10 | 944.6 | 6.081
303.15 K, w1 = 1 | – | 774.8 | –
308.15 K, w1 = 0 | 7.99e-10 | – | –
308.15 K, w1 = 0.1 | 5.53e-10 | 981.4 | 1.183
308.15 K, w1 = 0.2 | 4.41e-10 | 969.8 | 1.985
308.15 K, w1 = 0.3 | 3.57e-10 | 956.7 | 3.192
308.15 K, w1 = 0.4 | 2.89e-10 | 940.6 | 4.853
308.15 K, w1 = 1 | – | 770.9 | –
313.15 K, w1 = 0 | 9.04e-10 | – | –
313.15 K, w1 = 0.1 | 6.16e-10 | 979.3 | 1.051
313.15 K, w1 = 0.2 | 4.83e-10 | 967 | 1.709
313.15 K, w1 = 0.3 | 4.09e-10 | 953.1 | 2.669
313.15 K, w1 = 0.4 | 3.45e-10 | 936.6 | 3.838
313.15 K, w1 = 1 | – | 767.4 | –
318.15 K, w1 = 0 | 1.01e-09 | – | –
318.15 K, w1 = 0.1 | 6.82e-10 | 977 | 0.941
318.15 K, w1 = 0.2 | 5.41e-10 | 964 | 1.488
318.15 K, w1 = 0.3 | 4.58e-10 | 949.5 | 2.264
318.15 K, w1 = 0.4 | 3.82e-10 | 932.5 | 3.182
318.15 K, w1 = 1 | – | 765 | –
323.15 K, w1 = 0 | 1.08e-09 | – | –
323.15 K, w1 = 0.1 | 7.48e-10 | 974.6 | 0.846
323.15 K, w1 = 0.2 | 6.07e-10 | 961 | 1.311
323.15 K, w1 = 0.3 | 5.14e-10 | 945.8 | 1.945
323.15 K, w1 = 0.4 | 4.32e-10 | 928.4 | 2.681
323.15 K, w1 = 1 | – | 761.4 | –

CNCCCN [N-methyl-1,3-diaminopropane] + O
[2]
Conditions | binary diffusion coefficient [m2/s] | mass density [kg/m3] | viscosity [mPa·s]
303.15 K, w1 = 0 | 8.45e-10 | – | –
303.15 K, w1 = 0.1 | 7.35e-10 | 988.5 | 1.231
303.15 K, w1 = 0.2 | 6.87e-10 | 983.9 | 2.005
303.15 K, w1 = 0.3 | 6.4e-10 | 980.7 | 3.41
303.15 K, w1 = 0.4 | 6.08e-10 | 975.9 | 5.515
303.15 K, w1 = 1 | – | 849.1 | –
308.15 K, w1 = 0 | 9.56e-10 | – | –
308.15 K, w1 = 0.1 | 8.63e-10 | 986.7 | 1.09
308.15 K, w1 = 0.2 | 7.69e-10 | 981.6 | 1.731
308.15 K, w1 = 0.3 | 7.26e-10 | 977.7 | 2.823
308.15 K, w1 = 0.4 | 6.92e-10 | 972.2 | 4.451
308.15 K, w1 = 1 | – | 844.7 | –
313.15 K, w1 = 0 | 1.05e-09 | – | –
313.15 K, w1 = 0.1 | 9.36e-10 | 984.7 | 0.976
313.15 K, w1 = 0.2 | 8.72e-10 | 979.1 | 1.512
313.15 K, w1 = 0.3 | 8.25e-10 | 974.5 | 2.391
313.15 K, w1 = 0.4 | 7.77e-10 | 968.4 | 3.66
313.15 K, w1 = 1 | – | 840.3 | –
318.15 K, w1 = 0 | 1.18e-09 | – | –
318.15 K, w1 = 0.1 | 1.05e-09 | 982.6 | 0.887
318.15 K, w1 = 0.2 | 9.72e-10 | 976.4 | 1.333
318.15 K, w1 = 0.3 | 9.22e-10 | 971.3 | 2.059
318.15 K, w1 = 0.4 | 8.73e-10 | 964.6 | 2.979
318.15 K, w1 = 1 | – | 835.9 | –
323.15 K, w1 = 0 | 1.31e-09 | – | –
323.15 K, w1 = 0.1 | 1.18e-09 | 980.2 | 0.808
323.15 K, w1 = 0.2 | 1.09e-09 | 973.7 | 1.184
323.15 K, w1 = 0.3 | 1.03e-09 | 967.9 | 1.769
323.15 K, w1 = 0.4 | 9.77e-10 | 960.7 | 2.525
323.15 K, w1 = 1 | – | 831.5 | –

O [water]
[1]
Conditions | viscosity [mPa·s]
303.15 K | 0.789
308.15 K | 0.714
313.15 K | 0.651
318.15 K | 0.598
323.15 K | 0.541

NCCNCCN [di(2-aminoethyl)amine]
[1]
Conditions | mass density [kg/m3]
303.15 K | 942.1
308.15 K | 937.9
313.15 K | 933.8
318.15 K | 929.6
323.15 K | 925.5

OCCO [1,2-ethanediol] + O
[3]
Conditions | binary diffusion coefficient [m2/s]
303.15 K | 8.21e-10
308.15 K | 9.03e-10
313.15 K | 9.98e-10
318.15 K | 1.09e-09
323.15 K | 1.2e-09

CN(C)CCN(C)C [N,N,N',N'-tetramethyl-1,2-diaminoethane] + O
[2]
Conditions | binary diffusion coefficient [m2/s] | mass density [kg/m3] | viscosity [mPa·s]
303.15 K, w1 = 0 | 7.34e-10 | – | –
303.15 K, w1 = 0.1 | 5.61e-10 | 982.9 | 1.34
303.15 K, w1 = 0.2 | 4.62e-10 | 972.6 | 2.338
303.15 K, w1 = 0.3 | 3.74e-10 | 962.1 | 3.963
303.15 K, w1 = 0.4 | 3.12e-10 | 947.8 | 6.207
303.15 K, w1 = 1 | – | 767.3 | –
308.15 K, w1 = 0 | 8.35e-10 | – | –
308.15 K, w1 = 0.1 | 6.29e-10 | 981 | 1.179
308.15 K, w1 = 0.2 | 5.25e-10 | 970 | 1.983
308.15 K, w1 = 0.3 | 4.4e-10 | 958.6 | 3.243
308.15 K, w1 = 0.4 | 3.66e-10 | 943.7 | 4.925
308.15 K, w1 = 1 | – | 762.9 | –
313.15 K, w1 = 0 | 9.38e-10 | – | –
313.15 K, w1 = 0.1 | 7.16e-10 | 979 | 1.046
313.15 K, w1 = 0.2 | 5.74e-10 | 967.3 | 1.704
313.15 K, w1 = 0.3 | 4.91e-10 | 955.1 | 2.705
313.15 K, w1 = 0.4 | 4.25e-10 | 939.5 | 3.941
313.15 K, w1 = 1 | – | 759.1 | –
318.15 K, w1 = 0 | 1.05e-09 | – | –
318.15 K, w1 = 0.1 | 8.01e-10 | 976.7 | 0.933
318.15 K, w1 = 0.2 | 6.38e-10 | 964.4 | 1.481
318.15 K, w1 = 0.3 | 5.53e-10 | 951.5 | 2.287
318.15 K, w1 = 0.4 | 4.61e-10 | 935.3 | 3.205
318.15 K, w1 = 1 | – | 754.7 | –
323.15 K, w1 = 0 | 1.18e-09 | – | –
323.15 K, w1 = 0.1 | 9.51e-10 | 974.3 | 0.839
323.15 K, w1 = 0.2 | 7.5e-10 | 961.4 | 1.301
323.15 K, w1 = 0.3 | 6.29e-10 | 947.8 | 1.96
323.15 K, w1 = 0.4 | 5.31e-10 | 931 | 2.682
323.15 K, w1 = 1 | – | 750.3 | –

NCCNCCN [di(2-aminoethyl)amine] + O
[2]
Conditions | binary diffusion coefficient [m2/s] | mass density [kg/m3] | viscosity [mPa·s]
303.15 K, w1 = 0 | 7.45e-10 | – | –
303.15 K, w1 = 0.1 | 7.01e-10 | 998.5 | 1.211
303.15 K, w1 = 0.2 | 6.64e-10 | 1002.9 | 2.011
303.15 K, w1 = 0.3 | 6.14e-10 | 1009.8 | 3.572
303.15 K, w1 = 0.4 | 5.57e-10 | 1016.2 | 7.31
303.15 K, w1 = 1 | – | 942.1 | –
308.15 K, w1 = 0 | 8.43e-10 | – | –
308.15 K, w1 = 0.1 | 7.93e-10 | 996.7 | 1.08
308.15 K, w1 = 0.2 | 7.61e-10 | 1000.8 | 1.751
308.15 K, w1 = 0.3 | 7.14e-10 | 1007.2 | 3.015
308.15 K, w1 = 0.4 | 6.6e-10 | 1013 | 5.915
308.15 K, w1 = 1 | – | 937.9 | –
313.15 K, w1 = 0 | 9.5e-10 | – | –
313.15 K, w1 = 0.1 | 8.95e-10 | 994.8 | 0.97
313.15 K, w1 = 0.2 | 8.52e-10 | 998.7 | 1.54
313.15 K, w1 = 0.3 | 8.13e-10 | 1004.5 | 2.582
313.15 K, w1 = 0.4 | 7.41e-10 | 1009.9 | 4.859
313.15 K, w1 = 1 | – | 933.8 | –
318.15 K, w1 = 0 | 1.03e-09 | – | –
318.15 K, w1 = 0.1 | 1.01e-09 | 992.8 | 0.88
318.15 K, w1 = 0.2 | 9.38e-10 | 996.3 | 1.366
318.15 K, w1 = 0.3 | 8.82e-10 | 1001.8 | 2.234
318.15 K, w1 = 0.4 | 8.55e-10 | 1006.7 | 4.049
318.15 K, w1 = 1 | – | 929.6 | –
323.15 K, w1 = 0 | 1.19e-09 | – | –
323.15 K, w1 = 0.1 | 1.12e-09 | 990.6 | 0.799
323.15 K, w1 = 0.2 | 1.06e-09 | 993.9 | 1.221
323.15 K, w1 = 0.3 | 1.01e-09 | 998.9 | 1.95
323.15 K, w1 = 0.4 | 9.61e-10 | 1003.4 | 3.302
323.15 K, w1 = 1 | – | 925.5 | –
